# How the values were obtained:
# [1] = target: T1, PfPSH2 (Plasmodium falciparum, UniProt A0A1Q1G9G0); assay: radiolabelled Pi release, TLC; format: biochemical; details: M13mp19 ssDNA or total RNA as stimulator; 1.0 mM MgCl2, pH 8.0, 37 °C; labelled compound ([γ-32P]ATP with 1 mM cold ATP)
# T1 construct: gene PSH2; full length, 880 residues, ~105 kDa, His-tagged (pET28a+), expressed in E. coli BL21 codon Plus, Ni-NTA purified
# T1 sequence (A0A1Q1G9G0 1-880): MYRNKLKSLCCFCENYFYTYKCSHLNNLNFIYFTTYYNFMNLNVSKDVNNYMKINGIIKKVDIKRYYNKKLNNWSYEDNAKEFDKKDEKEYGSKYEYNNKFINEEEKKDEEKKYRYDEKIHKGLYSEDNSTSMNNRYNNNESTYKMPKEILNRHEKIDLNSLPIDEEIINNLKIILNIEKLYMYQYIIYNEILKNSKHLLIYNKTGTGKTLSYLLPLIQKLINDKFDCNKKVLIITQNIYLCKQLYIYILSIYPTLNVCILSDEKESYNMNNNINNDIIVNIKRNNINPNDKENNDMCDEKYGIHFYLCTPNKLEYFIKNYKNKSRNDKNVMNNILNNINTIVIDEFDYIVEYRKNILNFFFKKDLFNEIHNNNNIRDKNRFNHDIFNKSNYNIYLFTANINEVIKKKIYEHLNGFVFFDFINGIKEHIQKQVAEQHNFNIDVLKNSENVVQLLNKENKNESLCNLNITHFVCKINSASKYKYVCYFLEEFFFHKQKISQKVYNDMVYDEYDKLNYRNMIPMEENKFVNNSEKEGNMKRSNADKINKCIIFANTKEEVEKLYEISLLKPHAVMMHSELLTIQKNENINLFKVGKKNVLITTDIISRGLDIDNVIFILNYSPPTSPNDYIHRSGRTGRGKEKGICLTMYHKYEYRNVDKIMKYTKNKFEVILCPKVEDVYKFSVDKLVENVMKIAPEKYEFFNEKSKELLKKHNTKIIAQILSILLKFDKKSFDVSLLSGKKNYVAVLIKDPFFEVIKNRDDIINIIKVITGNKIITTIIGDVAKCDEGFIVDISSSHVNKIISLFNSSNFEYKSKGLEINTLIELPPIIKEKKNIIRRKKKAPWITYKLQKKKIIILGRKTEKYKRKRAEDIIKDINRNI
# [2] = target: T1, PfPSH2; assay: DNA helicase unwinding assay, gel autoradiography; format: biochemical; details: 32P-labelled partial duplex DNA; dATP in place of ATP; 1.0 mM MgCl2, pH 8.0, 37 °C; 80 nM protein
SMILES,"radiolabelled Pi release, TLC [1]","DNA helicase unwinding assay, gel autoradiography [2]"
Nc1ncnc2c1ncn2[C@@H]1O[C@H](COP(=O)(O)OP(=O)(O)OP(=O)(O)O)[C@@H](O)[C@H]1O [ATP],PfPSH2 shows concentration-dependent ATPase activity in the presence of DNA,
Nc1ncnc2c1ncn2[C@H]1C[C@H](O)[C@@H](COP(=O)(O)OP(=O)(O)OP(=O)(O)O)O1 [dATP],,PfPSH2 prefers ATP and dATP for unwinding the duplex substrate

# Reference: publication PMC6365506, “Plasmodium falciparum specific helicase 2 is a dual, bipolar helicase and is crucial for parasite growth” (Scientific Reports, 2019)
